Test results published in paper PMC7395176, “Retromer stabilization results in neuroprotection in a model of Amyotrophic Lateral Sclerosis” (Nature Communications, 2020).

Assays:
Assay type in all cases: in vivo
[1] = Brain uptake of compound 2a by LC-MS/MS in C57BL/6J mice; settings: C57BL6J mice, daily intraperitoneal injections 10 mg/kg; 1, 7, 15, 30 days
Method: Compounds 2a, 4a, and standard R55/1 (10 mg/Kg) were intraperitoneally injected in C57BL6J mice daily. After 1 week, mice were sacrificed, saline perfused to avoid CNS contamination by compounds in blood circulation, and SC protein extracts were assayed by WB. […] Therefore, phenyl-1,3-bis-guanylhydrazone 2a was selected as an early lead.
Quantification of compound 2a in CNS extracts of C57BL/6J mice was performed at ProMeFa facility (Proteomics and Metabolomics Facility) of San Raffaele Scientific Institute. Wild-type C57BL/6J males mice (P60) were intraperitoneally injected with compound 2a (10 mg/kg) or vehicle, daily. We sacrificed mice at the following time points: 1, 7, 15, and 30 days. Before brains collection, mice received saline perfusion. Brains were weighted (~350 mg each) and rapidly frozen at −80 °C. The extraction was performed with methanol and each biological sample was resuspended in 60 µl of LC/MS grade water and 5 µL were analyzed by LC-MS/MS using the UPLC 1290 (Agilent Technologies) coupled to the TripleTOF 5600+ mass spectrometer (SCIEX). […] Calibration curve in brain was constructed by plotting the peak area versus corresponding quantities of compound 2a (0; 0.1; 0.26; 1 nmol, run in quadruplicates, R2 = 0.9443), using MultiQuant 2.1 software (SCIEX).

[2] = tested on: CI-MPR; experiment: CI-MPR fluorescence in MNs of treated G93A mice; settings: 10 mg/kg, day 100
Source text: We next asked whether increasing VPS35/26 protein levels is sufficient to increase retromer functionality. CI-MPR is unstable in VPS26-knockout cells, and we observed a substantial reduction of CI-MPR MFI levels in MNs of vehicle-treated G93A mice compared with WT litters (Fig. 6c). […] Sortilin encodes a receptor belonging to the Vps10 family involved in Frontotemporal Dementia (FTD)[45], which shares functional homologies with MPRs and is another retromer cargo[46].
(§1) Fluorescence intensity levels of VPS35, VPS26, CI-MPR, Sortilin, CTSD and Ubiquitin were calculated using NHI-Image J software (US National Institutes of Health) according to the following protocol: stacks of confocal images were used to generate the maximal projections using the Leica Application Suite X (2.0.0.14332) software and then postprocessed by NHI-Image J to crop single NeuN^+ MNs from the ventral horn of the spinal cord. We next performed background (calculated on adjacent slices only receiving secondary antibodies) subtraction for each channel, before applying the NHI-Image J mean filter (with radius 2.0 pixels) to calculate mean NeuN fluorescence levels in individual MNs. Using this approach, we established a region of interest (ROI) to gate single MNs. On this ROI, we measured mean fluoresce levels (MFI) of target proteins.

[3] = target: VPS35 (Mus musculus, UniProt Q9EQH3+Q9QZ88); experiment: VPS35 levels in MNs and lumbar SC of treated G93A mice; parameters: from tissue; host or cells: mouse (lumbar) spinal cord, motor neurons; settings: 10 mg/kg, day 100
Method: We asked whether compound 2a could do the same in G93A MNs, using confocal microscopy to quantify VPS35 fluorescence levels in MNs gated in the ventral horn of lumbar SCs. We observed a significant reduction of VPS35 mean fluorescence intensity (MFI) levels in vehicle-treated G93A mice. […] We next assayed VPS26 MFI levels on parallel sections.
as §1
Compound 2a increases VPS35 levels in G93A mice […]

## NC(N)=N/N=C/c1cccc(/C=N/N=C(N)N)c1 [compound 2a, phenyl-1,3-bis-guanylhydrazone]
[1]
  access to the CNS (brain uptake): confirmed its access to the CNS
[2]
  CI-MPR MFI levels in MNs: significantly increased
[3]
  VPS35 levels in lumbar SC extracts (WB): increase VPS35 and VPS26b levels
  VPS35 mean fluorescence intensity (MFI) in MNs: significantly increased
